This is an account of results in US20240327401A1, “FUSED RING COMPOUND, PHARMACEUTICAL COMPOSITION, AND APPLICATION THEREOF” (EVOPOINT BIOSCIENCES CO., LTD., priority 2021, published 2024).

In assay [1] the test system is ERK phosphorylation in DLD-1 cells. The assay can be described thus: In-cell Western blot assay for ERK phosphorylation in DLD-1 cells. Type of assay: cell-based. To be noted: Homo sapiens, p-ERK signal corrected using DMSO and BI-3406, four-parameter fit. Here is the method: Efficacy Example 1: In-cell Western Blot Assay for ERK Phosphorylation in DLD-1 Cells
DLD-1 cells (ATCC, CCL-221) were thawed and cultured in a culture medium containing RPMI1640 (Gibco, A10491-01), 10% fetal bovine serum (FBS) (Transgene, FS201-02) and 1% antibiotic P/S (Gibco, 15140-122) for 3 days until the cell viability was good. The cells were inoculated into a 384-well plate and incubated at 37° C. with 5% CO2 overnight. A test compound, a positive control compound, and a negative control were added. The compound was at concentrations of 10000 nM to 1.52 nM (3-fold dilution) and […], for a total of 10 concentrations. The mixture was well mixed and incubated at 37° C. with 5% CO2. The cells were washed twice with PBS (Solarbio, P1010), and then a blocking buffer was added. After 1 h of blocking at room temperature, a primary antibody mixture (phospho-p44/42 MAPK (T202/Y204) Rabbit mAb (CST, […]), GAPDH (D4C6R) Mouse mAb) (CST, 97166S) was added, followed by overnight incubation at 4° C. The cells were washed 3 times with PBST (PBS containing 0.05% Tween-20 (Solarbio, T8220)), and a secondary antibody mixture (goat anti rabbit 800CW (LI-COR, 926-32211), goat anti mouse 680RD (LI-COR, 926-68070)) was added, followed by incubation at room temperature in the dark. The 384-well plate was reversed and centrifuged at 1000 rpm for 1 min, and read on an Odyssey CLx fluorescence imaging system (LI-COR) to obtain fluorescence signal values, which were corrected using DMSO and BI-3406.
[formula] • H=Ave (DMSO) • L=Ave (BI-3406) • SD (H)=STDEV (DMSO) • SD (L)=STDEV (BI-3406)
The IC50 values of the compounds were calculated using a four-parameter fitting algorithm, specifically as follows:
[formula] • X: Log of cpd concentration • Y: Ave (relative pERK) • Top and Bottom: Plateaus in same units as Y • log IC50: same log units as X • HillSlope: Slope factor or Hill slope.

The target in assay [2] is T1, SOS1/KRAS G12C protein binding (Homo sapiens, UniProt Q07889).
T1 construct: His-SOS1 (aa 564-1049) protein; purchased Pharmaron Beijing Co., Ltd. 20200717 (His-SOS1); 20200707 (KRAS G12C)
T1 sequence (Q07889 564-1049): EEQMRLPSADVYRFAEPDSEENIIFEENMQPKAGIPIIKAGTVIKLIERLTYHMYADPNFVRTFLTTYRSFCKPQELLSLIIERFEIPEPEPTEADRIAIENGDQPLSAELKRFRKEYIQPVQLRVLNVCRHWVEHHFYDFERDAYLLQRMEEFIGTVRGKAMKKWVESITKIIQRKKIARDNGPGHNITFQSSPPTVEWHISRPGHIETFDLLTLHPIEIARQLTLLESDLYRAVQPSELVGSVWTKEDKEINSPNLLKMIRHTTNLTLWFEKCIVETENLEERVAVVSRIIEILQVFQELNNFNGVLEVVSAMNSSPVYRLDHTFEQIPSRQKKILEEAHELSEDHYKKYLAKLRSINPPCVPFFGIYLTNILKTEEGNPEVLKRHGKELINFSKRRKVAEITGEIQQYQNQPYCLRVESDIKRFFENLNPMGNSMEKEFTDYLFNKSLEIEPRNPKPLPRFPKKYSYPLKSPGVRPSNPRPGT
As to the kind of experiment: Inhibition of SOS1/KRAS G12C protein binding (665 nm/615 nm ratio). To be noted: 15 nM KRAS G12C (aa 1-169), 2.5 nM His-SOS1 (aa 564-1049); nonlinear regression. As for the experimental part:
Efficacy Example 2: Evaluation of Inhibition of SOS1/KRAS G12C Protein Binding
A test compound was dissolved in 100% DMSO to give a solution at a concentration of 10 mM. 10 μL of the solution was taken and 3-fold diluted with 100% DMSO to prepare test compound solutions with concentrations of 10000 nM to […], for a total of 11 concentrations. The compound solutions at different concentrations were then transferred to a 384-well plate at 0.1 μL/well using a sonic droplet device Echo (Labcyte), and 2 replicate wells were set for each concentration.
A 15 nM KRAS G12C (aa 1-169) protein (Pharmaron Beijing Co., Ltd., 20200707) was transferred to the 384-well reaction plate at 5 μL/well using the sonic droplet device Echo (Labcyte), and then the reaction plate was centrifuged in a centrifuge (Eppendorf, 5810R) at 1000 rpm/min for 1 min.
A 2.5 nM His-SOS1 (aa 564-1049) protein (Pharmaron Beijing Co., Ltd., 20200717) was transferred to the 384-well reaction plate at 5 μL/well using the sonic droplet device Echo (Labcyte), and then the reaction plate was centrifuged in a centrifuge (Eppendorf, 5810R) at 1000 rpm/min for 1 min and incubated at 25° C. for 15 min.
A mixed solution of Antibody 1 (MAb Anti-6his-Tb cryptate Gold, Cisbio, 61HI2TLA) and Antibody 2 (MAb Anti-GST-XL665, Cisbio, 61GSTXLA) was transferred to the 384-well reaction plate at 10 μL/well using the sonic droplet device Echo (Labcyte), and then the reaction plate was centrifuged in a centrifuge (Eppendorf, 5810R) at 1000 rpm/min for 1 min and incubated at 25° C. for 120 min.
The 665 nm/615 nm optical density ratio was read using an Envision multifunctional microplate reader (Perkin Elmer, Envision 2104).
Analysis of Original Data:
The IC50 values of the compounds were fitted by a nonlinear regression equation of Graphpad Prism 8. The results are shown in Table 2: • Negative control: DMSO
The IC50 (half maximal inhibitory concentration) values of the compounds were calculated using the following non-linear fitting equation:
[formula] • X: Log of cpd concentration • Y: 665 nm/615 nm ratio

`[2H]C([2H])([2H])Oc1c(=O)n(C2(C(F)F)CC2)cc2c(N[C@H](C)c3cccc(C(C)(F)F)c3F)nc(C)nc12` [SZ-022355]: the IC50 (as a rule, the concentration at which inhibition is half-maximal) in assay [1] amounted to 112 nM; in assay [2] it was 2.47 nM. In the same order, the values of `Cc1nc(N[C@H](C)c2cccc(C(F)F)c2F)c2cn(C3(C(F)F)CC3)c(=O)c(OCCO)c2n1` [SZ-022352] are 516 nM and 16 nM.

Regarding `Cc1nc(N[C@H](C)c2cccc(C(F)F)c2F)c2cn(C3(C(F)F)CC3)c(=O)c(OC3CC3)c2n1` [SZ-022299], the IC50 was 751 nM in assay [1] and 22.4 nM in assay [2]. In the same order, the values of `COc1c(=O)n(C2(C(F)F)CC2)cc2c(N[C@H](C)c3cccc(C(F)(F)CO)c3F)nc(C)nc12` [SZ-022329] are 417 nM and 2.63 nM.

Consider `CCOc1c(=O)n(C2(C(F)(F)F)CC2)cc2c(N[C@H](C)c3cccc(C(F)F)c3F)nc(C)nc12` [SZ-022362], for which the IC50 in assay [1] worked out at 77 nM; in assay [2], 12.4 nM. In assay [1], `Cc1nc(N[C@H](C)c2cccc(C(F)F)c2F)c2cn(C3(C(F)F)CC3)c(=O)c(N(C)C)c2n1` [SZ-022251] came in with a half-maximal inhibitory concentration (IC50) of 146 nM. As for `COc1c(=O)n(C2(C(F)F)CC2)cc2c(N[C@H](C)c3cccc(C(F)(F)F)c3C)nc(C)nc12` [SZ-022304], the IC50 in assay [1] was found to be 79 nM; in assay [2] it was 6.98 nM. For `Cc1nc(N[C@H](C)c2cccc(C(F)F)c2F)c2cn(C3(C(F)F)CC3)c(=O)c(OCC(F)F)c2n1` [SZ-022368], the values for the IC50 in assay [1] and in assay [2] were 249 nM and 23.5 nM, respectively. In the same order, the values of `COc1c(=O)n(C2(CF)CC2)cc2c(N[C@H](C)c3cccc(C(C)(F)F)c3F)nc(C)nc12` [SZ-022357] are 165 nM and 3.68 nM.

With `[2H]C([2H])([2H])Oc1c(=O)n(C2(C(F)(F)F)CC2)cc2c(N[C@H](C)c3cccc(C(F)F)c3F)nc(C)nc12` [SZ-022354], the IC50 was determined as 138 nM in assay [1] and 21.8 nM in assay [2].

As for `COc1c(=O)n(C2(CO)CC2)cc2c(N[C@H](C)c3cccc(C(F)F)c3F)nc(C)nc12` [SZ-022347], in assay [2], the IC50 amounted to 60.1 nM.

Turning to `CCOc1c(=O)n(C2(CF)CC2)cc2c(N[C@H](C)c3cccc(C(F)F)c3F)nc(C)nc12` [SZ-022363], the figures for the IC50 in assay [1] and in assay [2] were 171 nM and 7.36 nM, respectively. In the same order, the values of `COc1c(=O)n(C2(C(F)F)CC2)cc2c(N[C@H](C)c3cccc(C(C)(F)F)c3)nc(C)nc12` [SZ-022350] are 211 nM and 16.7 nM.

With `[2H]C([2H])([2H])Oc1c(=O)n(C2(C(F)F)CC2)cc2c(N[C@H](C)c3cccc(C(F)F)c3F)nc(C)nc12` [SZ-022295], the IC50 in assay [1] stood at 256 nM; in assay [2], 8.15 nM.

`CSc1c(=O)n(C2(C(F)F)CC2)cc2c(N[C@H](C)c3cccc(C(F)F)c3F)nc(C)nc12` [SZ-022306]: the IC50 is 213 nM in assay [1] and 12.5 nM in assay [2]. In the case of `COc1c(=O)n(C2CCN(C(=O)C3CC3)CC2)cc2c(N[C@H](C)c3cccc(C(F)F)c3F)nc(C)nc12` [SZ-022335], the IC50 in assay [2] was 27.9 nM.

In the case of `COc1c(=O)n(C2(C(F)F)CC2)cc2c(N[C@H](C)c3cccc(C(C)(F)F)c3F)nc(C)nc12` [SZ-022303], the IC50 in assay [1] worked out at 128 nM; in assay [2], 9.77 nM. Taken in the same sequence, the figures for `Cc1nc(N[C@H](C)c2cccc(C(F)F)c2F)c2cn(C3(C(F)F)CC3)c(=O)c(OCC3CC3)c2n1` [SZ-022314] were 563 nM and 17.3 nM. Consider `COc1c(=O)n(C2(C(F)F)CC2)cc2c(N[C@H](C)c3cc(N)cc(C(F)(F)F)c3)nc(C)nc12` [SZ-022327], for which the figures for the IC50 in assay [1] and in assay [2] were 153 nM and 5.04 nM, respectively.

For `CCOc1c(=O)n(C2(C(F)F)CC2)cc2c(N[C@H](C)c3cccc(C(F)F)c3C)nc(C)nc12` [SZ-022337], the figures for the IC50 in assay [1] and in assay [2] were 174 nM and 4.14 nM, respectively. As to `Cc1nc(N[C@H](C)c2cccc(C(F)F)c2F)c2cn(C3(C(F)F)CC3)c(=O)c(OCC(F)(F)F)c2n1` [SZ-022312], the IC50 in assay [1] stood at 601 nM; in assay [2], 17.9 nM. Consider `COc1c(=O)n(C2CC(F)(F)C2)cc2c(N[C@H](C)c3cccc(C(F)F)c3F)nc(C)nc12` [SZ-022336], for which, in assay [2], the IC50 was found to be 36.5 nM. For the compound `[2H]C([2H])([2H])Oc1c(=O)n(C2(C(F)F)CC2)cc2c(N[C@H](C)c3cccc(C#N)c3C)nc(C)nc12` [SZ-022382], the IC50 in assay [1] came out at 729 nM; in assay [2], 8.86 nM. In the same order, the values of `COc1c(=O)n(C2(C(F)(F)F)CC2)cc2c(N[C@H](C)c3cccc(C(C)(F)F)c3F)nc(C)nc12` [SZ-022358] are 222 nM and 4.79 nM. Turning to `CCOc1c(=O)n(C2(C(F)F)CC2)cc2c(N[C@H](C)c3cccc(C(C)(F)F)c3F)nc(C)nc12` [SZ-022338], the IC50 came out at 334 nM in assay [1] and 12.1 nM in assay [2].

In the case of `Cc1nc(N[C@H](C)c2cccc(C(F)F)c2F)c2cn(C3(C(F)F)CC3)c(=O)c(S(C)(=O)=O)c2n1` [SZ-022307], the IC50 in assay [1] was 253 nM; in assay [2], 25.9 nM. In the same order, the values of `COc1c(=O)n(C2(C(F)F)CC2)cc2c(N[C@H](C)c3cccc(C(F)F)c3F)nc(C)nc12` [SZ-022244] are 265 nM and 17.8 nM. Taken in the same sequence, the figures for `CCOc1c(=O)n(C2(C(F)F)CC2)cc2c(N[C@H](C)c3cccc(C(F)F)c3F)nc(C)nc12` [SZ-022296] were 143 nM and 9.43 nM.

Take `COc1c(=O)n(C2(C(F)F)CC2)cc2c(N[C@H](C)c3cccc4c3OCC4(F)F)nc(C)nc12` [SZ-022330]: the IC50 was found to be 117 nM in assay [1] and 5.02 nM in assay [2]. In the case of `CCS(=O)(=O)c1c(=O)n(C2(C(F)F)CC2)cc2c(N[C@H](C)c3cccc(C(F)F)c3F)nc(C)nc12` [SZ-022372], the IC50 in assay [2] was 36.6 nM.

In the case of `COc1c(=O)n(C2CCOCC2)cc2c(N[C@H](C)c3cccc(C(F)F)c3F)nc(C)nc12` [SZ-022326], the IC50 in assay [2] turned out to be 10.5 nM.

With `CCC1(n2cc3c(N[C@H](C)c4cccc(C(F)F)c4F)nc(C)nc3c(OC)c2=O)CC1` [SZ-022343], in assay [2], the IC50 came to 26.7 nM.

On to `COc1c(=O)n(C2(C#N)CC2)cc2c(N[C@H](C)c3cccc(C(F)F)c3F)nc(C)nc12` [SZ-022344], for which the IC50 in assay [2] was 23.7 nM.
